Assay results published in patent US8791148B2, “Substituted benzimidazolone derivatives, medicaments comprising them and their use” (AbbVie Deutschland GmbH & Co. KG, priority 2006, dated 2014).

Target: T1, human vasopressin V1b receptor (Homo sapiens, UniProt P47901)
T1 construct: expressed in transfected cells; host or cells: CHO-K1 (cell line hV1b-3H2_CHO), membrane preparation
T1 sequence (P47901 1-424): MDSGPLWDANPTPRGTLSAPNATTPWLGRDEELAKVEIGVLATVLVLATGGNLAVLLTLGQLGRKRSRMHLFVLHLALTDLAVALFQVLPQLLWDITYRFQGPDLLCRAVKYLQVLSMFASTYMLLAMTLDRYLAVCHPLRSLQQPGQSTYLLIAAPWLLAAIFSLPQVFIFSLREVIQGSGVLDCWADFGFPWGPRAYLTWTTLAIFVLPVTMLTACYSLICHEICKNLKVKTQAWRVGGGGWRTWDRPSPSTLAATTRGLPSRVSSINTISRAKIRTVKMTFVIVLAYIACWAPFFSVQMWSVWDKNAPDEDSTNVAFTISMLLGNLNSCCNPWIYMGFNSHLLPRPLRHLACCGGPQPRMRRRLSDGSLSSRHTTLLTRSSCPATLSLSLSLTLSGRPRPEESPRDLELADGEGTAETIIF
Assay: Vasopressin V1b receptor binding assay
Details: membranes from CHO-K1 cells with stably expressed human V1b receptors; displacement of 1.5 nM 3H-AVP; read-out: V1b receptor affinity (affinity constant Ki)
In short: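 Membranes expressing human V1b receptor were incubated with radioligand and test compound (2% DMSO final) in 50 mM Tris, 10 mM MgCl2, 0.1% BSA, pH 7.4, for 60 min at room temperature, in triplicate. 1 uM AVP defined nonspecific binding. Bound ligand was separated by filtration and counted by scintillation; Ki came from nonlinear regression.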

First: COc1ccc(S(=O)(=O)n2c(=O)n(CC(=O)N3CCN(c4ccncc4)CC3)c3cc(Cl)ccc32)c(OC)c1 [Example 25, 5-Chloro-1-(2,4-dimethoxybenzenesulfonyl)-3-[2-oxo-2-(4-pyridin-4-ylpiperazin-1-yl)-ethyl]-1,3-dihydrobenzimidazol-2-one]
Second: CC(C(=O)N1CCN(c2ccncc2)CC1)n1c(=O)n(S(=O)(=O)c2ccc(C#N)cc2)c2ccc(Cl)cc21 (stereo not drawn) [Example 32, 4-{5-Chloro-3-[1-methyl-2-oxo-2-(4-pyridin-4-ylpiperazin-1-yl)ethyl]-2-oxo-2,3-dihydrobenzimidazole-1-sulfonyl}benzonitrile]
The Ki of the first is lower: 0.1 to 0.5 µM for the first, 0.5 to 10 µM for the second.

Compared with `CCCN1CCN(C2CCN(C(=O)C(c3ccccc3)n3c(=O)n(S(=O)(=O)c4ccc(OC)cc4)c4ccc(I)cc43)C2)CC1` (stereo not drawn) [Example 80, 5-Iodo-1-(4-methoxybenzenesulfonyl)-3-{2-oxo-1-phenyl-2-[3-(4-propylpiperazin-1-yl)pyrrolidin-1-yl]ethyl}-1,3-dihydrobenzimidazol-2-one], `CCCN1CCN([C@@H]2CCN(C(=O)C(c3ccccc3)n3c(=O)n(S(=O)(=O)c4ccc(OC)cc4)c4ccc(C#N)cc43)C2)CC1` (stereo partly drawn) [Example 163, 1-(4-Methoxybenzenesulfonyl)-2-oxo-3-{2-oxo-1-phenyl-2-[(R)-3-(4-propylpiperazin-1-yl)pyrrolidin-1-yl]ethyl}-2,3-dihydro-1H-benzimidazole-5-carbonitrile] is higher in Ki: less than 0.1 µM for the first, 0.1 to 0.5 µM for the second.

`COc1ccc(S(=O)(=O)n2c(=O)n(C(C(=O)N3CC[C@H](Nc4ccncc4)C3)c3ccccc3)c3cc(C#N)ccc32)cc1` (stereo partly drawn) [Example 253, 1-(4-Methoxy-benzenesulfonyl)-2-oxo-3-{2-oxo-1-phenyl-2-[(S)-3-(pyridine-4-ylamino)-pyrrolidin-1-yl]-ethyl}-2,3-dihydro-1H-benzoimidazole-5-carbonitrile; compound with trifluoroacetic acid] and `COc1ccc(S(=O)(=O)n2c(=O)n(C(C(=O)N3CCN(c4ccncc4)CC3)c3ccccc3)c3cc(I)ccc32)cc1` (stereo not drawn) [Example 4, 5-Iodo-1-(4-methoxybenzenesulfonyl)-3-[2-oxo-1-phenyl-2-(4-pyridin-4-ylpiperazin-1-yl)ethyl]-1,3-dihydrobenzimidazol-2-one] cannot be ordered by Ki: less than 0.1 µM for the first, less than 0.1 µM for the second.

Compared with `COc1ccc(S(=O)(=O)n2c(=O)n(C(C(=O)N(C)CCc3ccccn3)c3ccccc3)c3cc(Cl)ccc32)cc1` (stereo not drawn) [Example 120, 2-[6-Chloro-3-(4-methoxybenzenesulfonyl)-2-oxo-2,3-dihydrobenzimidazol-1-yl]-N-methyl-2-phenyl-N-(2-pyridin-2-ylethyl)acetamide], `COc1ccc(S(=O)(=O)n2c(=O)n(C(C(=O)N(C)CCCN(C)C)c3ccccc3)c3cc(Cl)ccc32)cc1` (stereo not drawn) [Example 117, 2-[6-Chloro-3-(4-methoxybenzenesulfonyl)-2-oxo-2,3-dihydrobenzimidazol-1-yl]-N-(3-dimethylaminopropyl)-N-methyl-2-phenylacetamide] is lower in Ki: 0.5 to 10 µM for the first, 0.1 to 0.5 µM for the second.

`COc1ccc(S(=O)(=O)n2c(=O)n(C(C(=O)N3CC[C@@H](N)C3)c3ccccc3)c3cc(Cl)ccc32)cc1` (stereo partly drawn) [Example 169, 3-[2-((R)-3-Aminopyrrolidin-1-yl)-2-oxo-1-phenylethyl]-5-chloro-1-(4-methoxybenzenesulfonyl)-1,3-dihydrobenzimidazol-2-one] and `COc1ccc(S(=O)(=O)n2c(=O)n(C(C(=O)N3CCN(c4ccccc4)CC3)c3ccccc3)c3cc(Cl)ccc32)cc1` (stereo not drawn) [Example 105, 5-Chloro-1-(4-methoxybenzenesulfonyl)-3-[2-oxo-1-phenyl-2-(4-phenylpiperazin-1-yl)ethyl]-1,3-dihydrobenzimidazol-2-one] fall in the same range of Ki: 0.5 to 10 µM for the first, 0.5 to 10 µM for the second.

`CCCN1CCN(C2CCN(C(=O)C(c3ccccc3)n3c(=O)n(S(=O)(=O)c4ccc(OC)cc4)c4ccccc43)C2)CC1` (stereo not drawn) [Example 107, 1-(4-Methoxybenzenesulfonyl)-3-{2-oxo-1-phenyl-2-[3-(4-propylpiperazin-1-yl)-pyrrolidin-1-yl]ethyl}-1,3-dihydrobenzimidazol-2-one] and `CCCN1CCN([C@H]2CCCN(C(=O)C(c3ccccc3)n3c(=O)n(S(=O)(=O)c4ccc(OC)cc4)c4ccc(C#N)cc43)C2)CC1` (stereo partly drawn) [Example 191, 1-(4-Methoxybenzenesulfonyl)-2-oxo-3-{2-oxo-1-phenyl-2-[(S)-3-(4-propylpiperazin-1-yl)piperidin-1-yl]ethyl}-2,3-dihydro-1H-benzimidazole-5-carbonitrile] cannot be ordered by Ki: less than 0.1 µM for the first, less than 0.1 µM for the second.

First: COc1ccc(S(=O)(=O)n2c(=O)n(C(C(=O)NCCN3CCCCC3)c3ccccc3)c3cc(Cl)ccc32)cc1 (stereo not drawn) [Example 114, 2-[6-Chloro-3-(4-methoxybenzenesulfonyl)-2-oxo-2,3-dihydrobenzimidazol-1-yl]-2-phenyl-N-(2-piperidin-1-ylethyl)acetamide]
Second: CCN(CCN(C)C)C(=O)C(c1ccccc1)n1c(=O)n(S(=O)(=O)c2ccc(OC)cc2)c2ccc(Cl)cc21 (stereo not drawn) [Example 118, 2-[6-Chloro-3-(4-methoxybenzenesulfonyl)-2-oxo-2,3-dihydrobenzimidazol-1-yl]-N-(2-dimethylaminoethyl)-N-ethyl-2-phenylacetamide]
The Ki of the first is higher: 0.5 to 10 µM for the first, less than 0.1 µM for the second. The second binds more tightly here.

`COc1ccc(S(=O)(=O)n2c(=O)n(C(C(=O)N3CC[C@H](N(C)C4CCN(C)CC4)C3)c3ccccc3)c3cc(C#N)ccc32)cc1` (stereo partly drawn) [Example 211, 1-(4-Methoxybenzenesulfonyl)-3-(2-{(S)-3-[methyl-(1-methylpiperidin-4-yl)-amino]pyrrolidin-1-yl}-2-oxo-1-phenylethyl)-2-oxo-2,3-dihydro-1H-benzimidazole-5-carbonitrile] and `COc1ccc(S(=O)(=O)n2c(=O)n(C(C(=O)N3CC[C@H](NC4CCN(C)CC4)C3)c3ccccc3)c3cc(C#N)ccc32)cc1` (stereo partly drawn) [Example 207, 1-(4-Methoxybenzenesulfonyl)-3-{2-[(S)-3-(1-methylpiperidin-4-ylamino)-pyrrolidin-1-yl]-2-oxo-1-phenylethyl}-2-oxo-2,3-dihydro-1H-benzimidazole-5-carbonitrile] cannot be ordered by Ki: less than 0.1 µM for the first, less than 0.1 µM for the second.

Compared with `N#Cc1ccc(S(=O)(=O)n2c(=O)n(C(Cc3ccccc3)C(=O)N3CCN(c4ccncc4)CC3)c3cc(Cl)ccc32)cc1` (stereo not drawn) [Example 29, 4-{3-[1-Benzyl-2-oxo-2-(4-pyridin-4-ylpiperazin-1-yl)ethyl]-5-chloro-2-oxo-2,3-dihydrobenzimidazol-1-sulfonyl}-benzonitrile], `O=C(C(c1ccccc1)n1c(=O)n(S(=O)(=O)c2ccsc2)c2ccc(Cl)cc21)N1CCN(c2ccncc2)CC1` (stereo not drawn) [Example 5, 5-Chloro-3-[2-oxo-1-phenyl-2-(4-pyridin-4-ylpiperazin-1-yl)ethyl]-1-(thiophene-3-sulfonyl)-1,3-dihydrobenzimidazol-2-one] is lower in Ki: 0.5 to 10 µM for the first, 0.1 to 0.5 µM for the second.

Compared with `CCCN1CCN(C2CCN(C(=O)Cn3c(=O)n(S(=O)(=O)c4ccc(OC)cc4)c4ccc(Cl)cc43)C2)CC1` (stereo not drawn) [Example 108, 5-Chloro-1-(4-methoxybenzenesulfonyl)-3-{2-oxo-2-[3-(4-propylpiperazin-1-yl)-pyrrolidin-1-yl]-ethyl}-1,3-dihydrobenzimidazol-2-one], `CCCN1CCN(C2CCN(C(=O)C(C)n3c(=O)n(S(=O)(=O)c4ccc(OC)cc4)c4ccc(Cl)cc43)C2)CC1` (stereo not drawn) [Example 75, 5-Chloro-1-(4-methoxybenzenesulfonyl)-3-{1-methyl-2-oxo-2-[3-(4-propylpiperazin-1-yl)-pyrrolidin-1-yl]ethyl}-1,3-dihydrobenzimidazol-2-one] is lower in Ki: 0.5 to 10 µM for the first, 0.1 to 0.5 µM for the second.

Compared with `O=C(C(c1ccccc1)n1c(=O)n(S(=O)(=O)c2cccs2)c2ccc(Cl)cc21)N1CCN(c2ccncc2)CC1` (stereo not drawn) [Example 44, 5-Chloro-3-[2-oxo-1-phenyl-2-(4-pyridin-4-ylpiperazin-1-yl)ethyl]-1-(thiophene-2-sulfonyl)-1,3-dihydrobenzimidazol-2-one], `COc1ccc(S(=O)(=O)n2c(=O)n(C(C(=O)N3CCN(C4CCN(C(=O)OC(C)(C)C)CC4)CC3)c3ccccc3)c3cc(Cl)ccc32)cc1` (stereo not drawn) [Example 127, tert-Butyl 4-(4-{2-[6-chloro-3-(4-methoxybenzenesulfonyl)-2-oxo-2,3-dihydrobenzimidazol-1-yl]-2-phenylacetyl}piperazin-1-yl)piperidin-1-carboxylate] is higher in Ki: 0.1 to 0.5 µM for the first, 0.5 to 10 µM for the second.

First: COc1ccc(S(=O)(=O)n2c(=O)n(C(C(=O)N3CC[C@H](NC4CCN(C(C)C)CC4)C3)c3ccccc3)c3cc(C#N)ccc32)cc1 (stereo partly drawn) [Example 208, 3-{2-[(S)-3-(1-Isopropylpiperidin-4-ylamino)pyrrolidin-1-yl]-2-oxo-1-phenylethyl}-1-(4-methoxybenzenesulfonyl)-2-oxo-2,3-dihydro-1H-benzimidazole-5-carbonitrile]
Second: CCCN1CCN([C@H]2CCN(C(=O)C(c3ccccc3)n3c(=O)n(S(=O)(=O)c4ccc(OCC(F)(F)F)cc4)c4ccc(C#N)cc43)C2)CC1 (stereo partly drawn) [Example 234, 2-oxo-3-{2-oxo-1-phenyl-2-[(S)-3-(4-propyl-piperazin-1-yl)-pyrrolidin-1-yl]-ethyl}1-[4-(2,2,2-trifluoro-ethoxy)-benzenesulfonyl]-2,3-dihydro-1H-benzoimidazole-5-carbonitrile]
The Ki of the first is lower: less than 0.1 µM for the first, 0.1 to 0.5 µM for the second.
